Test results taken from patent publication US20220401483A1, “COMBINATION OF A T CELL THERAPY AND (S)-3-[4-(4-MORPHOLIN-4-YLMETHYL-BENZYLOXY)-L-OXO-L,3-DIHYDRO-ISOINDOL-2-YL]-PIPERIDINE-2,6-DIONE” (Juno Therapeutics, Inc., priority 2019, published 2022).

System: K562.CD19, Raji, Granta-519 cells
Experiment: Cytolytic activity of chronically stimulated CAR T cells with rescue treatment, CD19+ tumor cells
Format: cell-based, human
Details: 0.001 μM or 0.01 μM, E:T 1:1, vs control
Description: Anti-CD19 CAR-expressing T cells from three donors, produced as described in Example 1, were stimulated under conditions to induce chronic stimulation (to produce hypofunctional, exhausted T cells) and then were subsequently treated (rescue) with (S)-3-[4-(4-morpholin-4-ylmethyl-benzyloxy)-1-oxo-1,3-dihydro-isoindol-2-yl]-piperidine-2,6-dione (Compound A), or a vehicle control. Long-term, chronic stimulation was carried out by stimulation of CAR T cells with 30 μg/mL plate-bound anti-idiotypic (anti-ID) antibody for 6 days, substantially as described in Example 3 but in the absence of Compound A. After the chronic stimulation, the CAR-T cells were rechallenged with CD19-expressing target cells in the presence of Compound A, and cytolytic activity or cytokine production was assessed.
CAR T cells that had been stimulated for 6 days with anti-ID were co-cultured with CD19+ tumor cells at an effector to target (E:T) ratio of 1:1, in the presence of Compound A (0.001 μM or 0.01 μM). The assessed CD19+ tumor cells included K562 cells transduced with CD19 (K562.CD19), Raji cells or Granta-519 cells.

O=C1CC[C@H](N2Cc3c(OCc4ccc(CN5CCOCC5)cc4)cccc3C2=O)C(=O)N1 [Compound A, (S)-3-[4-(4-morpholin-4-ylmethyl-benzyloxy)-1-oxo-1,3-dihydro-isoindol-2-yl]-piperidine-2,6-dione]
cytolytic activity (tumor cell number over time): statistically significant improvement
